One assay has as its target LXR β LBD protein (Homo sapiens (Human), UniProt P55055). The assay is described as follows: biochemical. The class given is binding.
For assay [1], the target named is Gal4 DNA binding domain fused to the LBD of LXRα in HEK293 cells (Homo sapiens (Human), UniProt Q13133). In words: LXR luciferase transcriptional reporter gene assay, agonist mode, LXRα. The class given is cell-based. As to conditions: for pEC50: read-out: Cell LXRα EC50.
Assay [2] has as its target Gal4 DNA binding domain fused to the LBD of LXRβ in HEK293 cells (Homo sapiens (Human), UniProt P55055). In words: cell-based.
The target of a further assay is LXR α LBD protein (Homo sapiens (Human), UniProt Q13133). The assay is described as follows: LXR α radioligand binding assay (SPA, competition with [3H]TO901317). As to conditions: read-out: LXRα Binding Ki.

pEC50, pKi: −log10 of the molar value. Where two headings read alike, the source gives them in different places.

Gal4 DNA binding domain fused to the LBD of LXRα in HEK293 cells, sequence (Q13133 209-447): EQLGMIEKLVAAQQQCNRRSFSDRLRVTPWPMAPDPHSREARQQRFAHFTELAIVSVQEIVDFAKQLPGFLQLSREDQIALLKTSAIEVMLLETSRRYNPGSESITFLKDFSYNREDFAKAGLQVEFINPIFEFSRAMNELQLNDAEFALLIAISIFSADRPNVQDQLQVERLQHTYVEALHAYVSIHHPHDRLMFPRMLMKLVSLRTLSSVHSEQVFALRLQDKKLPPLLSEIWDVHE
LXR α LBD protein, sequence (Q13133 209-447): as above
Gal4 DNA binding domain fused to the LBD of LXRβ in HEK293 cells, sequence (P55055 222-460 limits assumed): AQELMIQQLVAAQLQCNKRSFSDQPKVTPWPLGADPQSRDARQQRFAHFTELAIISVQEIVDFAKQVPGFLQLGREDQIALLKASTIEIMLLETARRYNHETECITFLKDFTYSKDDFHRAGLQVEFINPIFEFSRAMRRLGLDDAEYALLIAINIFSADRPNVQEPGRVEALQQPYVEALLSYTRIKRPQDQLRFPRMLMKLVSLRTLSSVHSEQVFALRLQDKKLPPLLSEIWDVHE
LXR β LBD protein, sequence (P55055 222-460 limits assumed): as above

Turning to `COCCCN(C)C(=O)c1cnc(N2CCN(c3ccc(F)c(S(C)(=O)=O)c3)C[C@H]2C(C)C)nc1C` [17-31, (R)-2-(4-(4-fluoro-3-(methylsulfonyl)phenyl)-2-isopropylpiperazin-1-yl)-N-(3-methoxypropyl)-N,4-dimethylpyrimidine-5-carboxamide], the pKi at LXR β LBD protein is 5.61; on LXR α LBD protein it was less than 5.48. For the same compound, the pEC50 in assay [1] (agonist mode) and in assay [2] was less than 4.70 in each case.
Consider `C[C@@](O)(c1ccc(CN2CCN(c3cccc(S(C)(=O)=O)c3)C[C@H]2c2ccccc2)cc1)C(F)(F)F` (single isomer, unassigned) [46-30], for which the results for the pKi on LXR β LBD protein and on LXR α LBD protein were 6.67 and 5.78, respectively. In assay [1], the “Cell LXRα efficacy” value is recorded as 1787 (28) %. The results for the pEC50 in assay [1] and in assay [2] were 5.75 and 6.27, respectively. Further, the “Cell LXRβ efficacy” value in assay [2] (agonist mode) is given as 532 (12) %.
Take `CCN(CCCO)C(=O)c1cnc(N2CCN(c3ccc(F)c(S(C)(=O)=O)c3)C[C@H]2C(C)C)nc1C(F)(F)F` [17-15, (R)-N-ethyl-2-(4-(4-fluoro-3-(methylsulfonyl)phenyl)-2-isopropylpiperazin-1-yl)-N-(3-hydroxypropyl)-4-(trifluoromethyl)pyrimidine-5-carboxamide]: the figures for the pKi at LXR β LBD protein (read-out: LXRβ Binding Ki) and at LXR α LBD protein were 6.44 and less than 5.48, respectively. Moreover, the pEC50 in assay [1] and in assay [2] was less than 4.70 throughout.
In the case of `CC(C)[C@H]1CC[C@H](CN2CCN(c3ccc(CO)c(S(C)(=O)=O)c3)C[C@H]2c2ccccc2)CC1` (single isomer, unassigned) [48-78], the pKi at LXR β LBD protein (Biological Test Example 1, read-out: LXRβ Binding Ki) was 5.61; on LXR α LBD protein, 4.51. In addition, the “Cell LXRα efficacy” value in assay [1] was 10997 (14) %. In addition, the pEC50 in assay [1] was 4.96; in assay [2] (Biological Test Example 2, agonist mode, read-out: Cell LXRβ EC50), 5.08. For the same compound, the “Cell LXRβ efficacy” value in assay [2] (Biological Test Example 2, agonist mode) is 10%.
As to `COC(=O)c1cnc(N2CCN(c3ccc(F)c(S(C)(=O)=O)c3)C[C@H]2C(C)C)nc1` [7-14, methyl (R)-2-(4-(4-fluoro-3-(methylsulfonyl)phenyl)-2-isopropylpiperazin-1-yl)pyrimidine-5-carboxylate], the pKi on LXR β LBD protein (read-out: LXRβ Binding Ki) is 6.55; on LXR α LBD protein, 5.54. Besides, the “Cell LXRα efficacy” value in assay [1] is recorded as 7124 (30) %. The pEC50 in assay [1] was 5.15; in assay [2], 6.42. For the same compound, the “Cell LXRβ efficacy” value in assay [2] (agonist mode) is 379 (17) %.
On to `CC(C)[C@@H]1CN(c2cccc(S(C)(=O)=O)c2)CCN1c1ccc(C(F)(F)F)c(C2CC2)n1` [40-4, (R)-1-(6-cyclopropyl-5-(trifluoromethyl)pyridin-2-yl)-2-isopropyl-4-(3-(methylsulfonyl)phenyl)piperazine], for which the pKi on LXR β LBD protein (read-out: LXRβ Binding Ki) is 8.15; at LXR α LBD protein, 7.85. The “Cell LXRα efficacy” value in assay [1] is 1057 (80) %. The negative logarithm of the EC50 (pEC50) in assay [1] was 5.98; in assay [2], 6.67.
For `CC(C)[C@H]1CN(c2ccc(CO)c(S(C)(=O)=O)c2)CCN1Cc1ccc(C(F)(F)F)o1` [47-5, (S)-(4-(3-isopropyl-4-((5-(trifluoromethyl)furan-2-yl)methyl)piperazin-1-yl)-2-(methylsulfonyl)phenyl)methanol], the pKi at LXR β LBD protein (read-out: LXRβ Binding Ki) is 6.96. For the same compound, in assay [1], the “Cell LXRα efficacy” value is recorded as 1187 (62) % and the pEC50 was 5.93. In assay [2], the “Cell LXRβ efficacy” value is 248 (50) % and the pEC50 was 6.61. Besides, on LXR α LBD protein, the negative logarithm of the Ki (pKi) was 5.96.
Take `CC(C)[C@@H]1CN(c2cc(S(C)(=O)=O)c(CO)cc2F)CCN1c1ncc(C(N)=O)c(C(F)(F)F)n1` [17-29, (R)-2-(4-(2-fluoro-4-(hydroxymethyl)-5-(methylsulfonyl)phenyl)-2-isopropylpiperazin-1-yl)-4-(trifluoromethyl)pyrimidine-5-carboxamide]: the negative-log Ki (pKi) at LXR β LBD protein (read-out: LXRβ Binding Ki) was 6.72; on LXR α LBD protein, 5.90. For the same compound, the “Cell LXRα efficacy” value in assay [1] is 1950 (15) %. The results for the pEC50 in assay [1] (agonist mode) and in assay [2] were 5.71 and 6.85, respectively. For the same compound, in assay [2] (agonist mode), the “Cell LXRβ efficacy” value is 142 (17) %.

These data come from US10144715B2, “Piperazine derivatives as liver X receptor modulators” (priority 2014, dated 2018).
